This note sets out measurements from patent US12227509B2, “Dihydropyrazolopyrazinone derivative having MGAT2 inhibitory activity” (Shionogi & Co., Ltd., priority 2019, dated 2025).

Structures are written as SMILES. Bounds are passed on as bounds.

One series addresses hERG (IKr) (Homo sapiens (Human), UniProt Q12809). The series can be described thus: hERG test. Format: cell-based. As to conditions: CHO cells expressing hERG channel, pH 7.4, 10 μmol/L of test compound, read-out: % inhibition of hERG tail peak current (IKr). From the text: For the purpose of assessing risk of an electrocardiogram QT interval prolongation of the compound of the present invention, effects of the compound of the present invention on delayed rectifier K^+ current (IKr), which plays an important role in the ventricular repolarization process, was studied using CHO cells expressing human ether-a-go-go related gene (hERG) channel.
After a cell was retained at a membrane potential of −80 mV by whole cell patch clamp method using an automated patch clamp system (QPatch; Sophion BIoscience A/S), IKr induced by application of a leak potential of −50 mV followed by depolarization pulse stimulation at +20 mV for 2 seconds and, further, repolarization pulse stimulation at −50 mV for 2 seconds, was recorded. […] From the recording IKr, an absolute value of the tail peak current was measured based on the current value at the resting membrane potential using analysis software (Falster Patch; Sophion Bioscience A/S). Further, the % inhibition of tail peak current for the compound of the present invention relative to the tail peak current after application of the vehicle is calculated to assess influence of the compound of the present invention on IKr.

The target in the next series is CYP2C9 (Homo sapiens (Human), UniProt P11712). The series can be described thus: CYP inhibition test, CYP2C9. As to conditions: pooled human liver microsomes; tolbutamide methyl-hydroxylation; given as 'five kinds'. The format is in vitro ADME. From the text:
(§1) Using commercially available pooled human hepatic microsome, and employing, as markers, 7-ethoxyresorufin O-deethylation (CYP1A2), tolbutamide methyl-hydroxylation (CYP2C9), mephenytoin 4'-hydroxylation (CYP2C19), dextromethorphan 0-demethylation (CYP2D6), and terfenadine hydroxylation (CYP3A4) as typical substrate metabolism reactions of human main five CYP enzyme forms (CYP1A2, 2C9, 2C19, 2D6, 3A4), an inhibitory degree of each metabolite production amount by the compound of the present invention was assessed. The reaction conditions are as follows: substrate, 0.5 μmol/L ethoxyresorufin (CYP1A2), 100 μmol/L tolbutamide (CYP2C9), 50 μmol/L S-mephenitoin (CYP2C19), 5 μmol/L dextromethorphan (CYP2D6), 1 μmol/L terfenedine (CYP3A4); reaction time, 15 minutes; reaction temperature, 37° C.; enzyme, pooled human liver microsomes 0.2 mg protein/mL; concentrations of the compound of the present invention, 1, 5, 10, 20 μmol/L (four points). As a reaction solution, each five kinds of substrates, human liver microsomes, or compound of the present invention in 50 mmol/L Hepes buffer were added to a 96-well plate at the composition as described above, and NADPH, as a cofactor was added to initiate metabolism reactions. After the incubation at 37° C. for 15 minutes, a methanol/acetonitrile=1/[…]) solution was added to stop the reaction. After the centrifugation at 3000 rpm for 15 minutes, resorufin (CYP1A2 metabolite) in the supernatant was quantified by a fluorescent multilabel counter or LC/MS/MS, and tolbutamide hydroxide (CYP2C9 metabolite), mephenytoin 4' hydroxide (CYP2C19 metabolite), dextrorphan (CYP2D6 metabolite), and terfenadine alcohol (CYP3A4 metabolite) were quantified by LC/MS/MS. Addition of only DMSO being a solvent dissolving a drug to a reaction system was adopted as a control (100%). Remaining activity (%) was calculated. IC50 was calculated by reverse presumption by a logistic model using the concentration and an inhibition rate.

In a further series the target is CYP2C19 (Homo sapiens (Human), UniProt P33261). Kind of series: CYP inhibition test, CYP2C19. Format: in vitro ADME. As to conditions: pooled human liver microsomes; mephenytoin 4′-hydroxylation; given as 'five kinds'.
Description: as §1

Another series deals with CYP2D6 (Homo sapiens (Human), UniProt P10635). The series can be described thus: CYP inhibition test, CYP2D6. Format: in vitro ADME. The note with it: pooled human liver microsomes; dextromethorphan O-demethylation; given as 'five kinds'.
Description: as §1

For series [1], the target named is T1, CYP3A4 (Homo sapiens (Human), UniProt P08684). Kind of series: CYP3A4 (MDZ) MBI test. The format is in vitro ADME. As to conditions: pooled human liver microsomes; midazolam 1-hydroxylation; preincubation 0 vs 30 min. How it is done:
CYP3A4 (MDZ) MBI test is a test of investigating mechanism based inhibition (MBI) potential on CYP3A4 by the enhancement of inhibitory degree of a metabolic reaction caused by the compound of the present invention. CYP3A4 inhibition was evaluated using pooled human liver microsomes by 1-hydroxylation reaction of midazolam (MDZ) as a marker reaction.
The reaction conditions are as follows: substrate, 10 μmol/L MDZ; pre-reaction time, 0 or 30 minutes; substrate reaction time, 2 minutes; reaction temperature, 37° C.; protein content of pooled human liver microsomes, at pre-reaction time 0.5 mg/mL, at reaction time 0.05 mg/mL (at 10-fold dilution); concentrations of the compound of the present invention, at pre-reaction time 1, 5, 10, 20 μmol/L (four points).
Pooled human liver microsomes and a solution of the compound of the present invention in K-Pi buffer (pH 7.4) as a pre-reaction solution were added to a 96-well plate at the composition of the pre-reaction. A part of pre-reaction solution was transferred to another 96-well plate, and 1/10 diluted by K-Pi buffer containing a substrate. NADPH as a co-factor was added to initiate a reaction as a marker reaction (without pre-reaction). After a predetermined time of a reaction, methanol/acetonitrile=1/1 (V/V) solution was added to stop the reaction. In addition, NADPH was added to a remaining pre-reaction solution to initiate a pre-reaction (with pre-reaction). After a predetermined time of a pre-reaction, a part was transferred to another plate, and 1/10 diluted by K-Pi buffer containing a substrate to initiate a reaction as a marker reaction. After a predetermined time of a reaction, methanol/acetonitrile=1/1 (V/V) solution was added in order to stop the reaction. The plate on which each index reaction had been performed was centrifuged at 3000 rpm for 15 minutes, and thereafter 1-hydroxylated midazolam in the supernatant was quantified by LC/MS/MS.
The sample adding DMSO as a solvent to a reaction system instead of a solution dissolving the compound of the present invention was adopted as a control (100%). Remaining activity (%) was calculated at each concentration of the compound of the present invention compared to a control, and IC value was calculated by reverse-presumption by a logistic model using a concentration and an inhibition rate. IC at Preincubation 0 min/IC at Preincubation 30 min was defined as a value of Shifted IC, and a case that Shifted IC was 1.5 or more was regarded as Positive, and a case that Shifted IC was 1.0 or less was regarded as Negative.

The target of another series is CYP1A2 (Homo sapiens (Human), UniProt P05177). Kind of series: CYP inhibition test, CYP1A2. The format is in vitro ADME. As to conditions: pooled human liver microsomes; 7-ethoxyresorufin O-deethylation; given as 'five kinds'.
Description: as §1

Series [2] in a line: Solubility test (1% DMSO addition, pH 6.8 artificial intestinal juice). The format is physicochemical. As to conditions: kinetic from dmso stock, 16 hours at 25° C. How it is done: The solubility of the compound of the present invention was determined under 1% DMSO addition conditions. 10 mmol/L solution of the compound was prepared with DMSO, and 6 μL of the solution of the compound of the present invention was added to 594 μL of pH 6.8 artificial intestinal juice (118 mL of 0.2 mol/L NaOH test solution and water were added to 250 mL of 0.2 mol/L potassium dihydrogen phosphate test solution to reach 1000 mL). The mixture was left standing for 16 hours at 25° C., and the mixture was vacuum-filtered. The filtrate was two-fold diluted with methanol/water=1/1 (V/V), and the compound concentration in the filtrate was measured with HPLC or LC/MS/MS by the absolute calibration method. The dilution concentration and the dilution solvent were changed as necessary.

The nature of series [3]: Metabolism stability test (human liver microsomes). The format is in vitro ADME. As to conditions: compound concentration 0.5 μmol/L, 37° C., 30 minutes, NADPH. The procedure:
Using commercially available pooled human hepatic microsomes, the compound of the present invention was reacted for a constant time, a remaining rate was calculated by comparing a reacted sample and an unreacted sample, thereby, a degree of metabolism of the compound of the present invention in liver was assessed.
A reaction was performed (oxidative reaction) at 37° C. for 0 minute or 30 minutes in the presence of 1 mmol/L NADPH in 0.2 mL of a buffer (50 mmol/L Tris-HCl pH 7.4, 150 mmol/L potassium chloride, 10 mmol/L magnesium chloride) containing 0.5 mg protein/mL of human liver microsomes. After the reaction, 50 μL of the reaction solution was added to 100 μL of a methanol/acetonitrile=1/1 (v/v) solution, mixed and centrifuged at 3000 rpm for 15 minutes. The compound of the present invention in the supernatant was quantified by LC/MS/MS, and a remaining amount of the compound of the present invention after the reaction was calculated, letting a compound amount at 0 minute reaction time to be 100%.

For series [4], the target named is T1, CYP3A4. Kind of series: CYP inhibition test, CYP3A4. The note with it: pooled human liver microsomes; terfenadine hydroxylation; given as 'five kinds'. The format is in vitro ADME.
Description: as §1

Sequence of CYP2D6 (P10635 whole entry): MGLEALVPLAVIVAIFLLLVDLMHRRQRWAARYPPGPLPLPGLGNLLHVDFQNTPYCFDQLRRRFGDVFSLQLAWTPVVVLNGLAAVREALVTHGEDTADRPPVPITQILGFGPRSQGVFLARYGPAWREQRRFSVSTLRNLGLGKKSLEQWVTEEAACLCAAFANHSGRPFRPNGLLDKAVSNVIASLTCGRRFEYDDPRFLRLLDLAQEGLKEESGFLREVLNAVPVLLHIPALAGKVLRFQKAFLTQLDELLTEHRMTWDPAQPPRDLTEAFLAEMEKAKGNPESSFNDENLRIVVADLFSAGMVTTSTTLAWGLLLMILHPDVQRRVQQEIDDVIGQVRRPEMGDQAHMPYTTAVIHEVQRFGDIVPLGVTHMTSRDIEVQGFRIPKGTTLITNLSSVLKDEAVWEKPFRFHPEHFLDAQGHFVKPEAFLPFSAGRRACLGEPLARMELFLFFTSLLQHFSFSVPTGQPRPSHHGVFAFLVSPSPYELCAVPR
Sequence of CYP1A2 (P05177 whole entry): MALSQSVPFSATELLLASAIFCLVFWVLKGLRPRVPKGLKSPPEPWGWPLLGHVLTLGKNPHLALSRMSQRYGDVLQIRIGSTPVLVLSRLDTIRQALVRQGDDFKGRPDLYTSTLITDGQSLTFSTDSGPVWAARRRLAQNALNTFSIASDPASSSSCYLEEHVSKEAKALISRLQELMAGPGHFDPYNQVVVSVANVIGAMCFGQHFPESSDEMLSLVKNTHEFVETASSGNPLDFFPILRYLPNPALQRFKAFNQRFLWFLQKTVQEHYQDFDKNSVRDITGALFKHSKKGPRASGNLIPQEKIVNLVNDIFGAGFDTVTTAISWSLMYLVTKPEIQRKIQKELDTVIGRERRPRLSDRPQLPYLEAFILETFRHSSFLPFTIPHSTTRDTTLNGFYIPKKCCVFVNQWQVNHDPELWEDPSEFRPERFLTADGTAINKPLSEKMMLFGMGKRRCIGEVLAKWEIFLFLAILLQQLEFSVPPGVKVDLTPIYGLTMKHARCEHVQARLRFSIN
Sequence of CYP2C19 (P33261 whole entry): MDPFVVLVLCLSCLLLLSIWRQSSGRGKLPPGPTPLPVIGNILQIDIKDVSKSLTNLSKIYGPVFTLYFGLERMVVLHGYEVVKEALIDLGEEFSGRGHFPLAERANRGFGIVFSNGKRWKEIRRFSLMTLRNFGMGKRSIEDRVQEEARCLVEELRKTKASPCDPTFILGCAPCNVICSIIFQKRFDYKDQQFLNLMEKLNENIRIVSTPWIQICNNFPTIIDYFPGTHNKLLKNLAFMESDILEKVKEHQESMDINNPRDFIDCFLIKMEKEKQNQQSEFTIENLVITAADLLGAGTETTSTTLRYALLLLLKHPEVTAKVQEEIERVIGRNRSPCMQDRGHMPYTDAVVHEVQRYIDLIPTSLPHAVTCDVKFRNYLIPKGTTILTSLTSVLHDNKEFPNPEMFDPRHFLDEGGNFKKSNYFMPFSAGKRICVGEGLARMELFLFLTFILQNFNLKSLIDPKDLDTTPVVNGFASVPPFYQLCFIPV
Sequence of CYP2C9 (P11712 whole entry): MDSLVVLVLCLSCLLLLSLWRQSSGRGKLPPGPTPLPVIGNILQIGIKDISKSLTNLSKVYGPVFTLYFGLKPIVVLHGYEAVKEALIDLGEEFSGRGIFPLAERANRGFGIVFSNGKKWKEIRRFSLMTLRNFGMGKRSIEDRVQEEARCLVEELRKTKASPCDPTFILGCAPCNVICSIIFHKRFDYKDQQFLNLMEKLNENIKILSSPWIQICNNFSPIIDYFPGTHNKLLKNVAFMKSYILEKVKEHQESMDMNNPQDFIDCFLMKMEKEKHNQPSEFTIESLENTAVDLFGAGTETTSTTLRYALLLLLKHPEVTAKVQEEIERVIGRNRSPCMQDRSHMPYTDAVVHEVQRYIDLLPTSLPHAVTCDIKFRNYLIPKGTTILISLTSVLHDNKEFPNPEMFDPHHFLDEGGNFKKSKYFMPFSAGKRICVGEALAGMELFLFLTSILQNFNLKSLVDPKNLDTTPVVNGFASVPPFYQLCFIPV
Sequence of hERG (IKr) (Q12809 whole entry): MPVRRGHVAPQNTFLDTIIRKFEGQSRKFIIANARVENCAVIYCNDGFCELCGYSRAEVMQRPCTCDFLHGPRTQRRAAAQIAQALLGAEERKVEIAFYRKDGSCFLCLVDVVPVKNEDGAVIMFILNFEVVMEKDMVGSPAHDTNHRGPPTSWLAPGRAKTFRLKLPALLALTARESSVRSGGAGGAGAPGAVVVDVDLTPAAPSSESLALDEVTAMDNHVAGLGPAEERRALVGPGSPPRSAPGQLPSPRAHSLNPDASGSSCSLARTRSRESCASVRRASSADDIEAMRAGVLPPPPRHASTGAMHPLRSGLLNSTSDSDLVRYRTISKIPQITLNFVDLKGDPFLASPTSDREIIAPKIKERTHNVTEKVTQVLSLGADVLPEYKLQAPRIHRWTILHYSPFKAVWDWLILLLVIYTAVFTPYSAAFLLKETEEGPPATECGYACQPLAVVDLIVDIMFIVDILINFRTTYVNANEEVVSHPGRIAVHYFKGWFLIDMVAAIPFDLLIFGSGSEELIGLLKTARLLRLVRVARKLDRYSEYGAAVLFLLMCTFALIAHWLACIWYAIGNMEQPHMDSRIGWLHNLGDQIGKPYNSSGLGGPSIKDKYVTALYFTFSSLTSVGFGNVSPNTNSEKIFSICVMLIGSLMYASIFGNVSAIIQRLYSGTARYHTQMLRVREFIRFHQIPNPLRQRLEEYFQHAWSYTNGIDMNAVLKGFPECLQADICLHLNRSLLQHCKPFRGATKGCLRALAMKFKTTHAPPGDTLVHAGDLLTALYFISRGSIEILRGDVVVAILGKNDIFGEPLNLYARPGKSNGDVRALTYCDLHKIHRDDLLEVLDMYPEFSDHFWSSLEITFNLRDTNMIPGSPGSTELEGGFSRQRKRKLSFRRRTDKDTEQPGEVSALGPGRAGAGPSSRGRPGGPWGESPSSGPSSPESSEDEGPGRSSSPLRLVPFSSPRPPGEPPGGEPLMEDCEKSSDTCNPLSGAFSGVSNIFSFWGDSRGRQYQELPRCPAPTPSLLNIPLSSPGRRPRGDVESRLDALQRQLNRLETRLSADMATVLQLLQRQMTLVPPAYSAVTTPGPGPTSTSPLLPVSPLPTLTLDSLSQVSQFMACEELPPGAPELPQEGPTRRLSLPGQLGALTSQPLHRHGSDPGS
T1 sequence (P08684 whole entry): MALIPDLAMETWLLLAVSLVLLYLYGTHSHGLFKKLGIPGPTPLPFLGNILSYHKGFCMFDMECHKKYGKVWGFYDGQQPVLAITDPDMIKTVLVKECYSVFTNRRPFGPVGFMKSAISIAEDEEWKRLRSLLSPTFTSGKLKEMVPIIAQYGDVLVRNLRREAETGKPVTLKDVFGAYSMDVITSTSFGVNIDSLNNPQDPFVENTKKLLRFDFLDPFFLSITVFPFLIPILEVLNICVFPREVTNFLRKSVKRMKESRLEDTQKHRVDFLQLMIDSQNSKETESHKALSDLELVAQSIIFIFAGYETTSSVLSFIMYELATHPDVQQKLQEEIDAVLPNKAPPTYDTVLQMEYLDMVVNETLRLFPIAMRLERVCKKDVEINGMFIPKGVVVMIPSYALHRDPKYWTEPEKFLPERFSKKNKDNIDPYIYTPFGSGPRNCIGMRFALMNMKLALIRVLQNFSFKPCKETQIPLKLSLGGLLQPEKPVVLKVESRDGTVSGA

For the compound `CS(=O)(=O)CC(=O)Nc1c(-c2ccc(F)cc2)nn2c1C(=O)N[C@@]1(CCOc3cc(OCC(F)(F)F)ccc31)C2` [Compound I-66], on hERG (IKr), the inhibition at 10 min, 10 μmol/L amounted to 14.6%. In addition, the IC50 against CYP2C9, on CYP2C19, against CYP2D6, against CYP1A2 and on CYP3A4 [4] was > 20 µM each time. In addition, the “CYP3A4 (MDZ) MBI (Shifted IC judgement)” value on CYP3A4 [1] was “Negative (a case that Shifted IC was 1.0 or less was regarded as Negative)”. For the same compound, the solubility at 16 h in series [2] is > 50 µM. Further, in series [3], the Remaining rate came out at 105%.

In the case of `CS(=O)(=O)CC(=O)Nc1c(-c2ccc(Cl)cn2)nn2c1C(=O)N[C@]1(CCOc3cc(F)cc(F)c31)C2` [Compound I-151], the inhibition at 10 min, 10 μmol/L at hERG (IKr) stood at 25.8%. Besides, the IC50 on CYP2C9, on CYP2C19, at CYP2D6, against CYP1A2 and against CYP3A4 [4] was > 20 µM each time. For the same compound, the “CYP3A4 (MDZ) MBI (Shifted IC judgement)” value at CYP3A4 [1] is “Negative (a case that Shifted IC was 1.0 or less was regarded as Negative)”. Besides, the solubility at 16 h in series [2] is > 50 µM. In series [3], this compound registered a Remaining rate of 104%.

Consider `CS(=O)(=O)CC(=O)Nc1c(-c2ccc(F)c(F)c2)nn2c1C(=O)N[C@@]1(CCc3cc(F)cc(F)c31)C2` [Compound I-130], for which, at hERG (IKr), the inhibition at 10 min, 10 μmol/L turned out to be 15.4%. Besides, the IC50 on CYP2C9, at CYP2C19, on CYP2D6, on CYP1A2 and against CYP3A4 [4] was > 20 µM each time. Further, the “CYP3A4 (MDZ) MBI (Shifted IC judgement)” value at CYP3A4 [1] is given as “Negative (a case that Shifted IC was 1.0 or less was regarded as Negative)”. In addition, the solubility at 16 h in series [2] was > 50 µM. Further, the Remaining rate in series [3] was found to be 94.8%.

`CS(=O)(=O)CC(=O)Nc1c(-c2ccc(F)c(F)c2)nn2c1C(=O)N[C@@]1(CCOc3cc(F)cc(F)c31)C2` [Compound I-126]: the inhibition at 10 min, 10 μmol/L at hERG (IKr) came out at 14.2%. Besides, the IC50 against CYP2C9, at CYP2C19, against CYP2D6, on CYP1A2 and against CYP3A4 [4] was > 20 µM in each case. The “CYP3A4 (MDZ) MBI (Shifted IC judgement)” value at CYP3A4 [1] is on record as “Negative (a case that Shifted IC was 1.0 or less was regarded as Negative)”. Moreover, in [2], the solubility at 16 h is > 50 µM. This compound also returned a Remaining rate in series [3] of 100%.

Regarding `CS(=O)(=O)CC(=O)Nc1c(-c2ccc(F)cc2)nn2c1C(=O)N[C@]1(CCc3cc(OCC(F)(F)F)ccc31)C2` [Compound I-79], at hERG (IKr), the inhibition at 10 min, 10 μmol/L came to 25.5%. Besides, the solubility at 16 h in series [2] is > 50 µM. The compound further displayed a Remaining rate in series [3] of 77.2%.

For the compound `CS(=O)(=O)CC(=O)Nc1c(-c2ccc(Cl)cn2)nn2c1C(=O)N[C@]1(CCc3cc(F)cc(F)c31)C2` [Compound I-147], on hERG (IKr), the inhibition at 10 min, 10 μmol/L is 21.6%. Moreover, the IC50 against CYP2C9, against CYP2C19, against CYP2D6, against CYP1A2 and on CYP3A4 [4] was > 20 µM in each case. Also, the “CYP3A4 (MDZ) MBI (Shifted IC judgement)” value at CYP3A4 [1] is “Negative (a case that Shifted IC was 1.0 or less was regarded as Negative)”. In addition, the solubility at 16 h in [2] is > 50 µM. This compound gave a Remaining rate in series [3] of 89.8%.
